Measured values: US20240287138A1, “CYCLIC PEPTIDES FOR INHIBITING TNF RECEPTOR 1 ACTIVITY” (Merck Sharp & Dohme LLC, priority 2023, published 2024)
Numbered stars: 1 amine (or outer) side, 2 acyl side, 3 side chain; on linkers, the order of the positions; unused ones are H or OH. Bridge positions count the residues as written; N and C are the ends. Square brackets hold non-standard residues; d marks the D form. Peptide text beside a SMILES is read from it. Trp(βS-Me,7-OMe) = COc1cccc2c([C@H](C)[C@H](N)C(=O)O)c[nH]c12; Trp(βS-Me) = C[C@@H](c1c[nH]c2ccccc12)[C@H](N)C(=O)O; Phe(4-NHCONH2) = NC(=O)Nc1ccc(C[C@H](N)C(=O)O)cc1; Trp(7-Br) = N[C@@H](Cc1c[nH]c2c(Br)cccc12)C(=O)O; Trp(7-Cl) = N[C@@H](Cc1c[nH]c2c(Cl)cccc12)C(=O)O; Phe(3-CONH2) = NC(=O)c1cccc(C[C@H](N)C(=O)O)c1; Phe(4-CONH2) = NC(=O)c1ccc(C[C@H](N)C(=O)O)cc1; Phe(4-COOH) = N[C@@H](Cc1ccc(C(=O)O)cc1)C(=O)O; Trp(7-aza) = N[C@@H](Cc1c[nH]c2ncccc12)C(=O)O; Phe(4-CH2NH2) = NCc1ccc(C[C@H](N)C(=O)O)cc1; Pip(5R-OH) = O=C(O)[C@@H]1CC[C@@H](O)CN1; αMeW = C[C@](N)(Cc1c[nH]c2ccccc12)C(=O)O; Lys(N3) = [N-]=[N+]=NCCCC[C@H](N)C(=O)O; X1 = O=C([C@@H]1CC[C@H](N[*:1])C1)[*:2]; dPro(3S-OH) = O=C(O)[C@@H]1NCC[C@@H]1O; Pip(4-aza) = O=C(O)[C@@H]1CNCCN1; 4Pal = N[C@@H](Cc1ccncc1)C(=O)O; NMeE = CN[C@@H](CCC(=O)O)C(=O)O; dHyp = O=C(O)[C@H]1C[C@H](O)CN1; Ahp(2) = CCCCC[C@H](N)C(=O)O; αMeS = C[C@](N)(CO)C(=O)O; Nle = CCCC[C@H](N)C(=O)O; Dap = NC[C@H](N)C(=O)O; Sar = CNCC(=O)O

target: T1, human soluble TNFR1 (sTNFR1) (Homo sapiens, UniProt P19438); assay: Human sTNFR1-peptide displacement assay (LanthaScreen Eu TR-FRET binding assay)
T1 construct: made in house; host or cells: Sf21 (baculovirus)
T1 sequence (P19438 with tags, fused parts or gaps): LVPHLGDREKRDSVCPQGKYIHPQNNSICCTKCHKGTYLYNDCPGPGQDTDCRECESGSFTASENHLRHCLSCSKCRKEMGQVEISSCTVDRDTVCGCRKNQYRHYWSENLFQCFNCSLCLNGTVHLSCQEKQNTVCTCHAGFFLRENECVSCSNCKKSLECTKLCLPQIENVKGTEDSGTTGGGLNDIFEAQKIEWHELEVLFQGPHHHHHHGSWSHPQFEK
Description: A. Procedure for Human sTNFR1-Peptide Displacement Assay
The affinity was determined using LanthaScreen Eu-based time-resolved fluorescence resonance energy transfer (TR-FRET)-based binding assay.
A TR-FRET assay measuring the displacement of biotinylated peptide SEQ ID NO. 1 from human soluble TNFR1 (sTNFR1) in a pre-formed complex by a macrocyclic peptide yields the affinity (Kd^app) of the cyclic peptide for sTNFR1. The reagents for the assay include: the C′-terminally 6His-tagged sTNFR1 (residues 1-211) protein purified from a Sf21 baculovirus expression system, the biotin-tagged B0372 peptide described in section “Preparation of Final Compounds”, part E, the LanthaScreen™ anti-His Tag Europium donor (Life Technologies Corporation (San Diego, CA), cat. #PV5597), and a streptavidin-conjugate Alexa Fluor™ 647 acceptor (Invitrogen (Waltham, MA), cat. #S32357). Time-resolved TR-FRET is achieved when sTNFR1 is bound to biotinylated peptide SEQ ID NO. 1 through coupling of the donor and acceptor FRET pair.
100 nM biotinylated peptide SEQ ID NO. […] 100 nM biotinylated peptide SEQ ID NO. 1 was chosen as it reflects the ˜Kd for this complex. After 30 min at ambient temperature, each test peptide (2 mM stock in DMSO) is titrated in a 20 point, ˜3-fold discrete dose-response using an acoustic-dispense liquid handler. Specifically, 80 nL of peptide/DMSO is transferred into a ProxiPlate-384 Plus 384-well assay plate (PerkinElmer, cat. #6008289). To this plate, 8 μL of the previously formed sTNFR 1-biotinylated peptide SEQ ID NO. 1 complex is added and allowed to reach binding equilibrium with the test peptide at ambient temperature for 90 min.
The TR-FRET signal is measured with the following EnVision® settings: excitation laser at 337 nm; emission1=615 nm, emission2=665 nm, LANCE/DELFIA dichroic mirror, delay time=[…]. The signal of each well is determined as the ratio of the emission at 665 nm to that at 615 nm. Percent displacement is determined by normalization to control wells containing DMSO (0%) or a saturating concentration of a displaceable peptide (100%). The %-effect as a function of peptide concentration is fit to a five-parameter logistic fit based on the Morrison equation to account for tight binding kinetics.

SMILES | Kd [nM] | IC50 [nM]
CCCC[C@@H]1NC(=O)[C@@H]2CC[C@@H](C2)NC(=O)[C@H]([C@@H](C)c2c[nH]c3c(OC)cccc23)NC(=O)CN(C)C(=O)[C@H](Cc2ccc(O)cc2)NC(=O)[C@H](Cc2ccc(C(=O)O)cc2)NC(=O)[C@](C)(CO)NC(=O)[C@H](Cc2c[nH]c3c(Cl)cccc23)NC(=O)[C@H](Cc2ccncc2)NC(=O)[C@H](CC(N)=O)NC(=O)[C@H]2[C@@H](O)CCN2C(=O)[C@H](Cc2c[nH]c3ccccc23)NC(=O)[C@@H]2CNCCN2C(=O)[C@H](Cc2ccncc2)NC1=O [SEQ ID NO. 192] (cyclo([4Pal][Trp(7-Cl)][αMeS][Phe(4-COOH)]Y[Sar][Trp(βS-Me,7-OMe)][X1][Nle][4Pal][Pip(4-aza)]W[dPro(3S-OH)]N)) | 0.24 | 
CCCC[C@@H]1NC(=O)[C@@H]2CC[C@@H](C2)NC(=O)[C@H]([C@@H](C)c2c[nH]c3c(OC)cccc23)NC(=O)CN(C)C(=O)[C@H](Cc2ccc(O)cc2)NC(=O)[C@H](Cc2ccc(C(N)=O)cc2)NC(=O)[C@](C)(CO)NC(=O)[C@H](Cc2c[nH]c3c(Cl)cccc23)NC(=O)[C@H](Cc2ccc(NC(N)=O)cc2)NC(=O)[C@H](CC(N)=O)NC(=O)[C@H](CCC(=O)O)N(C)C(=O)[C@H](Cc2c[nH]c3ccccc23)NC(=O)[C@@H]2CC[C@@H](O)CN2C(=O)[C@H](Cc2ccncc2)NC1=O [SEQ ID NO. 165] (cyclo([4Pal][Pip(5R-OH)]W[NMeE]N[Phe(4-NHCONH2)][Trp(7-Cl)][αMeS][Phe(4-CONH2)]Y[Sar][Trp(βS-Me,7-OMe)][X1][Nle])) | 0.18 | 
CCCCC[C@@H]1NC(=O)[C@@H]2CC[C@@H](C2)NC(=O)[C@H]([C@@H](C)c2c[nH]c3c(OC)cccc23)NC(=O)CN(C)C(=O)[C@H](Cc2cccc(C(N)=O)c2)NC(=O)[C@H](Cc2ccc(C(=O)O)cc2)NC(=O)[C@](C)(CO)NC(=O)[C@H](Cc2c[nH]c3c(Br)cccc23)NC(=O)[C@H](Cc2ccc(C(=O)O)cc2)NC(=O)[C@H](CC(N)=O)NC(=O)[C@H]2C[C@H](O)CN2C(=O)[C@H](Cc2c[nH]c3ccccc23)NC(=O)[C@@H]2CNCCN2C(=O)[C@H](Cc2ccncc2)NC1=O [SEQ ID NO. 85] (cyclo([4Pal][Pip(4-aza)]W[dHyp]N[Phe(4-COOH)][Trp(7-Br)][αMeS][Phe(4-COOH)][Phe(3-CONH2)][Sar][Trp(βS-Me,7-OMe)][X1][Ahp(2)])) | 0.11 | 
C[C@@H](c1c[nH]c2ccccc12)[C@@H]1NC(=O)[C@H](CN)NC(=O)[C@H](Cc2ccncc2)NC(=O)[C@H](CCCCN=[N+]=[N-])NC(=O)CSC[C@@H](C(N)=O)NC(=O)[C@](C)(Cc2c[nH]c3ccccc23)NC(=O)CN(C)C(=O)[C@H](Cc2ccc(CN)cc2)NC(=O)[C@H](Cc2ccc(C(=O)O)cc2)NC(=O)[C@](C)(CO)NC(=O)[C@H](Cc2c[nH]c3c(Cl)cccc23)NC(=O)[C@H](Cc2ccncc2)NC(=O)[C@H](CC(N)=O)NC(=O)[C@H]2CCCN2C1=O [SEQ ID NO. 245] ({CH2CO}-[Lys(N3)][4Pal][Dap][Trp(βS-Me)][dP]N[4Pal][Trp(7-Cl)][αMeS][Phe(4-COOH)][Phe(4-CH2NH2)][Sar][αMeW]C-NH2; thioether N-14) |  | 0.95
CCCC[C@@H]1NC(=O)CSC[C@@H](C(N)=O)NC(=O)[C@H]([C@@H](C)c2c[nH]c3c(OC)cccc23)NC(=O)CN(C)C(=O)[C@H](Cc2ccc(O)cc2)NC(=O)[C@H](Cc2ccc(C(=O)O)cc2)NC(=O)[C@](C)(CO)NC(=O)[C@H](Cc2c[nH]c3c(Cl)cccc23)NC(=O)[C@H](Cc2ccncc2)NC(=O)[C@H](CC(N)=O)NC(=O)[C@H](CCC(=O)O)N(C)C(=O)[C@H](Cc2c[nH]c3ncccc23)NC(=O)[C@@H]2CNCCN2C(=O)[C@H](Cc2c[nH]cn2)NC1=O [SEQ ID NO. 264] ({CH2CO}-[Nle]H[Pip(4-aza)][Trp(7-aza)][NMeE]N[4Pal][Trp(7-Cl)][αMeS][Phe(4-COOH)]Y[Sar][Trp(βS-Me,7-OMe)]C-NH2; thioether N-14) |  | 1.49
